US6737383B1, “Herbicidal oxadiazolidines” (priority 1999, dated 2004)

What was measured:
cocklebur = assay: Test B pre/postemergence cocklebur; type: in vivo, Xanthium strumarium
Outline: (§1)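 Test chemicals in a non-phytotoxic solvent mixture with surfactant were sprayed preemergence onto planted seeds and postemergence onto plants 2 to 18 cm tall (1- to 4-leaf stage). After twelve to sixteen days in a greenhouse, injury was visually rated against untreated controls from 0 (no effect) to 10 (complete control).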

sugar beet = assay: Test B pre/postemergence sugar beet; type: in vivo, Beta vulgaris
Outline: as §1

rice = assay: Test B flood test rice; type: in vivo, Oryza sativa
Outline: (§2)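 Each value is a visual injury score relative to controls, with 10 meaning complete control and 0 no effect. Evaluation took place twelve to sixteen days after the 2-leaf-stage plants were treated and kept in the greenhouse.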

soybean = assay: Test B pre/postemergence soybean; type: in vivo, Glycine max
Outline: as §1

surinam grass = assay: Test B pre/postemergence surinam grass; type: in vivo, Brachiaria decumbens
Outline: as §1

giant foxtail = assay: Test B pre/postemergence giant foxtail; type: in vivo, Setaria faberii
Outline: as §1

wheat = assay: Test B pre/postemergence wheat; type: in vivo, Triticum aestivum
Outline: as §1

rape = assay: Test B pre/postemergence rape; type: in vivo, Brassica napus
Outline: as §1

duck salad = assay: Test B flood test duck salad; type: in vivo, Heteranthera limosa
Outline: as §2

velvetleaf = assay: Test B pre/postemergence velvetleaf; type: in vivo, Abutilon theophrasti
Outline: as §1

pigweed = assay: Test B pre/postemergence pigweed; type: in vivo, Amaranthus retroflexus
Outline: as §1

wild oat = assay: Test B pre/postemergence wild oat; type: in vivo, Avena fatua
Outline: as §1

blackgrass = assay: Test B pre/postemergence blackgrass; type: in vivo, Alopecurus myosuroides
Outline: as §1

corn = assay: Test B pre/postemergence corn; type: in vivo, Zea mays
Outline: as §1

crabgrass = assay: Test B pre/postemergence crabgrass; type: in vivo, Digitaria sanguinalis
Outline: as §1

smallflower flatsedge = assay: Test B flood test smallflower flatsedge; type: in vivo, Cyperus difformis
Outline: as §2

[1] = Postemergence, Rate 250 g/ha, scale 0 to 10
[2] = Postemergence, Rate 500 g/ha, scale of 0 to 10 where 0 is no effect and 10 is complete control
[3] = Preemergence, Rate 62 g/ha, scale 0 to 10 (0 no effect, 10 complete control)
[4] = Preemergence, Rate 125 g/ha, scale of 0 to 10 where 0 is no effect and 10 is complete control
[5] = Preemergence, Rate 250 g/ha, scale 0 to 10, 0 is no effect, 10 is complete control
[6] = Preemergence, Rate 500 g/ha, scale 0 to 10, 0 is no effect, 10 is complete control
[7] = Rate 62 g/ha, Postemergence, scale of 0 to 10 where 0 is no effect and 10 is complete control
[8] = Rate 125 g/ha, Postemergence, scale 0 to 10, 0 is no effect, 10 is complete control
[9] = Postemergence block (flood test species), Rate 250 g/ha, scale 0 to 10
[10] = Postemergence section (flood test species), Rate 500 g/ha, scale of 0 to 10 where 0 is no effect and 10 is complete control
[11] = Rate 125 g/ha, Postemergence section (flood test species), scale 0 to 10, 0 is no effect, 10 is complete control

SMILES: CC(C)N(C(=O)n1oc(=O)n(C(C)C#N)c1=O)c1ccc(F)cc1F (centres unmarked) [Compound 432]
- Cocklebur plant response rating (cocklebur; [1]): 0
- Cocklebur plant response rating (cocklebur; [2]): 0
- Plant response rating, Cocklebur (cocklebur; [3]): 0
- Plant response rating, Cocklebur (cocklebur; [4]): 0
- Cocklebur plant response rating (cocklebur; [5]): 0
- Cocklebur plant response rating (cocklebur; [6]): 0
- Cocklebur plant response rating (cocklebur; [7]): 0
- Cocklebur plant response rating (cocklebur; [8]): 0
- Sugarbeets plant response rating (sugar beet; [1]): 0
- Sugarbeets plant response rating (sugar beet; [2]): 0
- Plant response rating, Sugarbeets (sugar beet; [3]): 0
- Plant response rating, Sugarbeets (sugar beet; [4]): 0
- Sugarbeets plant response rating (sugar beet; [5]): 0
- Sugarbeets plant response rating (sugar beet; [6]): 0
- Sugarbeets plant response rating (sugar beet; [8]): 0
- Rice plant response rating (rice; [9]): 0
- Rice plant response rating (rice; [10]): 0
- Rice plant response rating (rice; [11]): 0
- Soybean plant response rating (soybean; [1]): 2
- Soybean plant response rating (soybean; [2]): 2
- Plant response rating, Soybean (soybean; [3]): 0
- Plant response rating, Soybean (soybean; [4]): 0
- Soybean plant response rating (soybean; [5]): 0
- Soybean plant response rating (soybean; [6]): 0
- Soybean plant response rating (soybean; [8]): 1
- B. signalgrass plant response rating (surinam grass; Postemergence, Rate 250 g/ha, scale 0 to 10, 0 no effect, 10 complete control): 0
- B. signalgrass plant response rating (surinam grass; [2]): 0
- Plant response rating, B. signalgrass (surinam grass; [3]): 0
- Plant response rating, B. signalgrass (surinam grass; [4]): 0
- B. signalgrass plant response rating (surinam grass; [5]): 0
- B. signalgrass plant response rating (surinam grass; [6]): 0
- B. signalgrass plant response rating (surinam grass; [7]): 0
- B. signalgrass plant response rating (surinam grass; [8]): 0
- Giant foxtail plant response rating (giant foxtail; [1]): 6
- Giant foxtail plant response rating (giant foxtail; [2]): 8
- Plant response rating, Giant foxtail (giant foxtail; [3]): 0
- Plant response rating, Giant foxtail (giant foxtail; [4]): 2
- Giant foxtail plant response rating (giant foxtail; [5]): 6
- Giant foxtail plant response rating (giant foxtail; [6]): 9
- Giant foxtail plant response rating (giant foxtail; [7]): 0
- Giant foxtail plant response rating (giant foxtail; [8]): 3
- Wheat plant response rating (wheat; [1]): 0
- Wheat plant response rating (wheat; [2]): 0
- Plant response rating, Wheat (wheat; [3]): 0
- Plant response rating, Wheat (wheat; [4]): 0
- Wheat plant response rating (wheat; [5]): 0
- Wheat plant response rating (wheat; [6]): 0
- Wheat plant response rating (wheat; [8]): 0
- Rape plant response rating (rape; [1]): 0
- Rape plant response rating (rape; [2]): 0
- Plant response rating, Rape (rape; [3]): 0
- Plant response rating, Rape (rape; [4]): 0
- Rape plant response rating (rape; [5]): 0
- Rape plant response rating (rape; [6]): 0
- Rape plant response rating (rape; [8]): 0
- Ducksalad plant response rating (duck salad; [9]): 0
- Ducksalad plant response rating (duck salad; [10]): 0
- Ducksalad plant response rating (duck salad; Rate 62 g/ha, Postemergence (flood test species), scale of 0 to 10 where 0 is no effect and 10 is complete control): 0
- Ducksalad plant response rating (duck salad; [11]): 0
- Velvetleaf plant response rating (velvetleaf; [1]): 0
- Velvetleaf plant response rating (velvetleaf; [2]): 2
- Plant response rating, Velvetleaf (velvetleaf; [3]): 0
- Plant response rating, Velvetleaf (velvetleaf; [4]): 0
- Velvetleaf plant response rating (velvetleaf; [5]): 0
- Velvetleaf plant response rating (velvetleaf; [6]): 0
- Velvetleaf plant response rating (velvetleaf; [8]): 0
- Redroot pigweed plant response rating (pigweed; [1]): 0
- Redroot pigweed plant response rating (pigweed; [2]): 0
- Plant response rating, Redroot pigweed (pigweed; [3]): 0
- Plant response rating, Redroot pigweed (pigweed; [4]): 0
- Redroot pigweed plant response rating (pigweed; [5]): 0
- Redroot pigweed plant response rating (pigweed; [6]): 0
- Redroot pigweed plant response rating (pigweed; [8]): 0
- Wild oats plant response rating (wild oat; [1]): 0
- Wild oats plant response rating (wild oat; [2]): 3
- Plant response rating, Wild oats (wild oat; [3]): 0
- Plant response rating, Wild oats (wild oat; [4]): 0
- Wild oats plant response rating (wild oat; [5]): 0
- Wild oats plant response rating (wild oat; [6]): 0
- Wild oats plant response rating (wild oat; [8]): 0
- Blackgrass plant response rating (blackgrass; [1]): 4
- Blackgrass plant response rating (blackgrass; [2]): 4
- Plant response rating, Blackgrass (blackgrass; [3]): 0
- Plant response rating, Blackgrass (blackgrass; [4]): 0
- Blackgrass plant response rating (blackgrass; [5]): 0
- Blackgrass plant response rating (blackgrass; [6]): 2
- Blackgrass plant response rating (blackgrass; [7]): 0
- Blackgrass plant response rating (blackgrass; [8]): 2
- Corn plant response rating (corn; [1]): 0
- Corn plant response rating (corn; [2]): 0
- Plant response rating, Corn (corn; [3]): 0
- Plant response rating, Corn (corn; [4]): 0
- Corn plant response rating (corn; [5]): 0
- Corn plant response rating (corn; [6]): 0
- Corn plant response rating (corn; [7]): 0
- Corn plant response rating (corn; [8]): 0
- Crabgrass plant response rating (crabgrass; [1]): 6
- Crabgrass plant response rating (crabgrass; [2]): 6
- Plant response rating, Crabgrass (crabgrass; [3]): 3
- Plant response rating, Crabgrass (crabgrass; [4]): 5
- Crabgrass plant response rating (crabgrass; [5]): 8
- Crabgrass plant response rating (crabgrass; [6]): 9
- Crabgrass plant response rating (crabgrass; [7]): 0
- Crabgrass plant response rating (crabgrass; [8]): 0
- S. Flatsedge plant response rating (smallflower flatsedge; [9]): 0
- S. Flatsedge plant response rating (smallflower flatsedge; [10]): 0
- S. Flatsedge plant response rating (smallflower flatsedge; [11]): 0
